The results in this text go back to paper PMC10587869, “Deciphering Structural Determinants Distinguishing Active from Inactive Cell-Penetrating Peptides for Cytosolic mRNA Delivery” (Bioconjugate Chemistry, 2023).

Positions of bridges follow the written chain, without caps; N, C: chain ends. Non-standard residues stand in square brackets, D forms with d. Residues, ends and D or L forms follow the SMILES beside them. No end group written: not given here. *: point of attachment. Stearoyl = CCCCCCCCCCCCCCCCCC(=O)*; Orn = NCCC[C@H](N)C(=O)O

The nature of series [1]: Heparin-mediated polyplex decomplexation assay (QuantiFluor RNA). Conditions: for stability of polyplexes against heparin-induced decomplexation: N/P 5, TE buffer pH 7.5, 37 °C 90 min, released mRNA by QuantiFluor RNA dye, Figure 7. It is filed as physicochemical. The method, then:
For testing the stability of mRNA polyplexes, a polyanion decomplexation assay, mediated by the polyanionic heparin (heparin sodium salt from porcine intestinal mucosa, Cat. No. H3149-100 KU, Sigma-Aldrich) was performed. mRNA polyplexes were freshly prepared with uncapped SecNLuc mRNA (RIBOPRO), as described in the section mRNA Nanoparticle Formation. Following polyplex formation, all samples were incubated for at least 30 min at room temperature. Importantly, separate stock solutions of heparin were made to ensure an equal volume across conditions regardless of heparin concentration. For decomplexation, 5 μL of 10× polyplexes were diluted in RNase-free TE-buffer at pH 7.5 (Promega, Cat. No. E260A) supplemented with an equal volume of heparin across conditions to a total volume of 50 μL in a 384-well plate (Greiner Bio-One, Cat. No. 781101). All samples were quickly spun down before incubation at 37 °C for 90 min. The QuantiFluor RNA System (Promega, Cat. No. E3310) was used with a 1:2000 dilution of RNA-binding dye for all tested conditions to detect released mRNA. For quantification, a calibration curve with uncapped SecNLuc mRNA was made, spanning from 0.19 ng mRNA/well to 50 ng mRNA/well. For detection of released mRNA, the dye was excited at 485 nm, and emission was collected at 535 nm using the VICTOR X3Multilabel Plate Reader (PerkinElmer)
Data analysis was performed using GraphPad Prism (GraphPad Software, version 8.4.2, San Diego, CA, USA). Data are presented as means ± standard deviation (SD) unless stated otherwise. Means were calculated by first averaging the technical replicates, for which outliers were identified using Grubbs’ test, followed by averaging the biological replicates. Before statistical analysis, all data were checked for normal distribution with a Shapiro–Wilk test. Statistical analysis was done using one- or two-way analysis of variance (ANOVA). Multiple comparisons were corrected using Tukey’s test with 95% confidence intervals. For the mRNA standard curve used in heparin decomplexation assays, the coefficient of variation was determined both in the standards and in samples and was ≤20%. The standard curve was fitted using a sigmoidal four-parameter logistic curve. The standard curve was back fitted with ±10% accuracy to verify the correctness of the fit. The signals from samples were blanked with the appropriate solution (TE buffer) before calculating interpolations. p > 0.05 was considered not significant, and p values were reported using the GraphPad Prism style (*p ≤ 0.05, **p ≤ 0.01, ***p ≤ 0.001, and ****p ≤ 0.0001).

Series [2] concerns MC3T3 cells. Description: Resazurin assay of metabolic activity after mRNA transfection. It is filed as cell-based, murine. Details: concentration or dose not given beside the values. Conditions: normalized to untreated. The method, then:
(§1) One day before mRNA transfections, 10 000 MC3T3 cells in 100 μL were seeded in 96-well plates (Greiner Bio-One Cat. No. 655180) or 20 000 cells in 200 μL in μ-slide eight-well chambers (Ibidi, Gräfelfing, Germany). These seeding densities ensured confluency between ∼70 and 90% on the day of transfection. mRNA transfections were performed by removing the complete medium from the wells and replacing it with mRNA nanoparticles diluted 10 times in complete medium. Cells were exposed to mRNA nanoparticles for 2 h at 37 °C, 5% CO2, in a humidified incubator. For some experiments, cells were stained with 200 μL of 1 μM CellTrace yellow (Thermo Fisher Scientific, Cat. No. C34567) directly after the nanoparticle incubation, according to the manufacturer’s instructions. Regardless of the tested N/P ratio or type of nanoparticle, mRNA inputs were equalized across conditions, resulting in 107 ng/well for luciferase assays in 96-well plate formats and 214 ng/well for confocal microscopy experiments. […] For untreated controls, complete cell culture medium was added and refreshed as often as in the experimental conditions.
(§2) The resazurin-based assay was performed essentially as described previously.[61],[62] In brief, the effect of different peptide-mRNA complexes on the metabolic activity of cells was measured 24 h post-transfection. Resazurin sodium salt (Sigma-Aldrich, Cat No. R7017) was dissolved in PBS and diluted 100 times to a final concentration of 100 μg/mL in complete medium. After 2 h of incubation with cells at 37 °C, fluorescence was measured using the VICTOR X3Multilabel Plate Reader (PerkinElmer, Waltham, MA, USA). After briefly shaking the plate, resazurin was excited at 485 nm, and emission was collected from 570 to 620 nm. All samples were blanked by the average signal of cell-free wells. Blanked data were normalized to untreated conditions per cell type.
(In general: The colour change of resazurin is a common sign of viable cells or microbes.)

In series [3] the test system is MC3T3 cells. The experiment in a line: Cellular uptake of Cy5-eGFP mRNA polyplexes, live-cell confocal microscopy. The series is classed as cell-based, murine. The conditions noted are these: for ratio of Poly hLF-x vs Mono-hLF-x, Corrected Total Cellular Fluorescence (Cy5): Cy5-eGFP mRNA polyplexes, 2 h post-transfection, n = 5 fields of view per condition; for effect of oligomerization on uptake: Cy5-labeled mRNA, polymerized vs monomeric, Figure 5, Figure S5. The method, then: Peptide-mRNA polyplexes were formulated as previously described.[40],[41] In short, two separate stock solutions of mRNA and peptide were prepared in MQ and simultaneously dispensed with electronically dispensing pipettes (E4 Electronic Pipette, LTS E4-100XLS+, Mettler-Toledo Rainin, LLC, Oakland, CA, USA) at a flow rate of 11 mL min^–1. All polyplexes were formed at a concentration of at least 10-fold the final intended concentration for transfections.
as §1
Before microscopy, complete medium containing phenol red was replaced with an equal volume of phenol red-free and HEPES-formulated Opti-MEM (Gibco). The uptake of Cy5-eGFP mRNA-formulated nanoparticles was assessed 2 h post-transfection, and eGFP expression was assessed 24 h post-transfection. Live-cell imaging was performed using a Leica TCS SP8 SMD (Leica Microsystems, Mannheim, Germany) with an HC PL APO CS2 63×/1.20 water objective and a temperature-controlled stage at 36.5 °C. eGFP was excited at 488 nm (emission: 500–550 nm). CellTrace yellow was excited at 555 nm (emission: 570–620 nm), and Cy5 was excited at 633 nm (emission: 650–690 nm). All laser lines were generated by a white-light laser, and emissions were detected with hybrid detectors. All channels were sequentially acquired to avoid crosstalk at a bit depth of 12. Except for the LMM eGFP conditions (reduced gain), equal acquisition settings (pixel size, pinhole, laser power, and gain) per fluorophore were used within the experiments.
Quantification of the Cy5 fluorescence was performed as previously described.[59],[60] In brief, five separate images (unless stated otherwise) containing approximately 10 cells per image were analyzed using ImageJ (version 1.53f51). A square mask of 184.52 μm^2 was used to quantify the raw integrated density (sum of all pixels in a region of interest). Importantly, cell confluencies ranged from ∼80–95%, ensuring minimal impact of cell density on total fluorescence values. The brightness and contrast of the images were adjusted to find a cell-free region to determine background fluorescence. Then, a circle was drawn to measure the background fluorescence. To obtain the corrected total cellular fluorescence (CTCF), the area (in pixels) was multiplied by the mean gray value of the background and subsequently subtracted from the raw integrated density.

The test system of another series is HeLa cells. Description: Resazurin assay of metabolic activity after mRNA transfection. It is filed as cell-based, human. The conditions noted are these: normalized to untreated. The procedure: as §1, §2
Where [4] appears, read: MC3T3, N/P 3, resazurin 24 h post-transfection.
The mark [5] stands for this setting: MC3T3, N/P 5, resazurin 24 h post-transfection.
Where [6] appears, read: N/P 5, resazurin 24 h post-transfection.

For “KCFQWQRNMRKVRGPPVSCIKR (disulfide 2-19 (inferred)) [Poly hLF-WT, hLF-WT oligomerized through intermolecular disulfide bonds]”, the “stability of polyplexes against heparin-induced decomplexation” value in series [1] is listed as “significantly lower release of mRNA”. Turning to `CC(C)C[C@@H]1NC(=O)[C@H](C)NC(=O)[C@H](CCCN)NC(=O)[C@H](C(C)C)NC(=O)[C@H](CCCN)NC(=O)[C@H](CCCN)NC(=O)[C@H](CC(C)C)NC(=O)[C@H](CC(N)=O)NC(=O)[C@H](CCCN)NC(=O)[C@H](CC(C)C)NC(=O)[C@H](Cc2c[nH]c3ccccc23)NC(=O)[C@H](CCC(N)=O)NC(=O)[C@H](Cc2ccccc2)NC(=O)[C@@H](NC(=O)[C@@H](N)CCCN)CSSC[C@@H](C(=O)N[C@@H](CC(C)C)C(=O)N[C@@H](CCCN)C(=O)N[C@@H](CCCN)C(N)=O)NC(=O)[C@H](CO)NC(=O)[C@H](C(C)C)NC(=O)[C@H](CC(C)C)NC1=O` [Mono-hLF-v3] (H-[Orn]CFQWL[Orn]NL[Orn][Orn]V[Orn]ALLVSCL[Orn][Orn]-NH2; disulfide 2-19), in the series with MC3T3 cells [2] (setting [4]), the relative metabolic activity stood at 125%. Take “OCFQWLONLOOVOALLVSCLOO (disulfide) [poly hLF-v3, polymeric hLF-v3]”: the “uptake of Cy5-labeled mRNA polyplexes of amphipathic hLF variants” value with MC3T3 cells [3] (2 h incubation, live-cell confocal microscopy, serum present, Figure 5, four independent experiments) is recorded as “comparable to the one of PF14”. Besides, the relative metabolic activity in the series on MC3T3 cells [2] (setting [5]) is listed as approximately 125%. Consider `CCCCCCCCCCCCCCCCCC(=O)N[C@@H](C)C(=O)NCC(=O)N[C@@H](Cc1ccc(O)cc1)C(=O)N[C@@H](CC(C)C)C(=O)N[C@@H](CC(C)C)C(=O)NCC(=O)N[C@@H](CCCCN)C(=O)N[C@@H](CC(C)C)C(=O)N[C@@H](CC(C)C)C(=O)N[C@@H](CCCN)C(=O)N[C@@H](CCCN)C(=O)N[C@@H](CC(C)C)C(=O)N[C@@H](C)C(=O)N[C@@H](C)C(=O)N[C@@H](C)C(=O)N[C@@H](C)C(=O)N[C@@H](CC(C)C)C(=O)N[C@@H](CCCN)C(=O)N[C@@H](CCCN)C(=O)N[C@@H](CC(C)C)C(=O)N[C@@H](CC(C)C)C(N)=O` [PF14, reference compound] (Stearoyl-AGYLLGKLL[Orn][Orn]LAAAAL[Orn][Orn]LL-NH2), for which the relative metabolic activity in the series on HeLa cells (N/P 3, resazurin 24 h post-transfection) stood at 72%; with HeLa cells (setting [6]), 13%; in the series with MC3T3 cells [2] (setting [5]) it was 64%. The “stability against heparin decomplexation” value in series [1] (N/P 7, low heparin dose, Figure S8) is “least stable”.

For `CC[C@H](C)[C@H](NC(=O)[C@@H]1CSSC[C@H](NC(=O)[C@H](CCCCN)NC(C)=O)C(=O)N[C@@H](Cc2ccccc2)C(=O)N[C@@H](CCC(N)=O)C(=O)N[C@@H](Cc2c[nH]c3ccccc23)C(=O)N[C@@H](CCC(N)=O)C(=O)N[C@@H](CCCNC(=N)N)C(=O)N[C@@H](CC(N)=O)C(=O)N[C@@H](CCSC)C(=O)N[C@@H](CCCNC(=N)N)C(=O)N[C@@H](CCCCN)C(=O)N[C@@H](C(C)C)C(=O)N[C@@H](CCCNC(=N)N)C(=O)NCC(=O)N2CCC[C@H]2C(=O)N2CCC[C@H]2C(=O)N[C@@H](C(C)C)C(=O)N[C@@H](CO)C(=O)N1)C(=O)N[C@@H](CCCCN)C(=O)N[C@@H](CCCNC(=N)N)C(N)=O` [Mono-hLF-WT] (Ac-KCFQWQRNMRKVRGPPVSCIKR-NH2; disulfide 2-19), the figures for the relative metabolic activity with HeLa cells (setting [6]) and with MC3T3 cells [2] (setting [4]) were 83% and 125%, respectively. The “stability of polyplexes against heparin-induced decomplexation” value in series [1] is on record as “significantly lower stability of these polyplexes compared to PF14, except for the highest heparin dose”. In the case of “OCFQWQONMOOVOGPPVSCIOO [hLF-Orn, hLF analog with positively charged residues replaced by ornithines]”, the “ratio of Poly hLF-x vs Mono-hLF-x, Corrected Total Cellular Fluorescence (Cy5)” value with MC3T3 cells [3] amounted to 1.19 x.

Regarding `CC(C)C[C@@H]1NC(=O)[C@H](C)NC(=O)[C@H](CCCCN)NC(=O)[C@H](C(C)C)NC(=O)[C@H](CCCCN)NC(=O)[C@H](CCCCN)NC(=O)[C@H](CC(C)C)NC(=O)[C@H](CC(N)=O)NC(=O)[C@H](CCCCN)NC(=O)[C@H](CC(C)C)NC(=O)[C@H](Cc2c[nH]c3ccccc23)NC(=O)[C@H](CCC(N)=O)NC(=O)[C@H](Cc2ccccc2)NC(=O)[C@@H](NC(=O)[C@@H](N)CCCCN)CSSC[C@@H](C(=O)N[C@@H](CC(C)C)C(=O)N[C@@H](CCCCN)C(=O)N[C@@H](CCCCN)C(N)=O)NC(=O)[C@H](CO)NC(=O)[C@H](C(C)C)NC(=O)[C@H](CC(C)C)NC1=O` [mono-hLF-v2] (H-KCFQWLKNLKKVKALLVSCLKK-NH2; disulfide 2-19), the relative metabolic activity in the series with MC3T3 cells [2] (setting [5]) is recorded as approximately 125%. On to “OCFQWLONLOOVOALLVSCLOO [hLF-v3, ornithine-substituted amphipathic hLF variant]”, for which the “effect of oligomerization on uptake” value in the series with MC3T3 cells [3] (2 h incubation) is “pronounced increase in uptake”. Same read-out and setting: the entry for “KCFQWLKNLKKVKALLVSCLKK [hLF-v2, lysine-substituted amphipathic hLF variant]” is “pronounced increase in uptake”. As to “OCFQWQHNMOHVHGPPVSCIOH [hLF-His&Orn, hLF analog with positively charged residues replaced by histidines and ornithines]”, the “ratio of Poly hLF-x vs Mono-hLF-x, Corrected Total Cellular Fluorescence (Cy5)” value in the series with MC3T3 cells [3] amounted to 2.42 x. As to “OCFQWQONMOOVOGPPVSCIOO (disulfide) [poly-hLF-Orn, hLF-Orn oligomerized through intermolecular disulfide bonds]”, the “difference in heparin decomplexation” value in series [1] (N/P 1 and 3, low or high heparin amounts, Figure S8) was “no difference”.
